Measured values from patent US12662469B2 (SIRONAX LTD, priority 2018, dated 2026).

The compounds below were run on Cell Necrosis (assay: Cell necrosis assay / cell viability assay (necrosis inhibitor activity)). Details: necrosis inhibitor activity; EC data for 14-191 extrapolated; read-out: EC50.
Assay type: cell-based

Row | SMILES | EC50 [nM]
1 | NC(=O)c1cccc(OC2CN(C(=O)N3N=CCC3c3cc(F)cc(F)c3)C2)c1 (centres unmarked) [Compound 129, 3-((1-(5-(3,5-difluorophenyl)-4,5-dihydro-1H-pyrazole-1-carbonyl)azetidin-3-yl)oxy)benzamide] | 1 to 1000
2 | O=C(N1CCN(c2cncnc2)CC1)N1N=CCC1c1ccccc1 (centres unmarked) [Compound 99, (5-phenyl-4,5-dihydro-1H-pyrazol-1-yl)(4-(pyrimidin-5-yl)piperazin-1-yl)methanone] | 1000 to 10000
3 | O=C(N1CC(Cc2ccc(Cl)cc2)C1)N1N=CCC1c1ccccc1 (centres unmarked) [Compound 49, (3-(4-chlorobenzyl)azetidin-1-yl)(5-phenyl-4,5-dihydro-1H-pyrazol-1-yl)methanone] | 1 to 1000
4 | C[C@H]1CN(c2ncc(F)cn2)CCN1C(=O)N1N=CC[C@H]1c1cc(F)cc(F)c1 [Compound 118A, ((S)-5-(3,5-difluorophenyl)-4,5-dihydro-1H-pyrazol-1-yl)((S)-4-(5-fluoropyrimidin-2-yl)-2-methylpiperazin-1-yl)methanone] | 1 to 1000
5 | O=C(N1CC(Cc2ccc(F)cc2F)C1)N1OCC[C@H]1c1ccccc1 [Compound 82, (S)-(3-(2,4-difluorobenzyl)azetidin-1-yl)(3-phenylisoxazolidin-2-yl)methanone] | 1 to 1000
6 | N#Cc1cnc(N2CCN(C(=O)N3N=CCC3c3ccccc3)CC2)s1 (centres unmarked) [Compound 108, 2-(4-(5-phenyl-4,5-dihydro-H-pyrazole-1-carbonyl)piperazin-1-yl)thiazole-5-carbonitrile] | 1 to 1000
7 | O=C(NC1CCN(c2ccccc2)C1)N1N=CCC1c1ccccc1 (centres unmarked) [Compound 24, 5-phenyl-N-(1-phenylpyrrolidin-3-yl)-4,5-dihydro-1H-pyrazole-1-carboxamide] | 1 to 1000
8 | O=C(N1CC(=Cc2ccccc2F)C1)N1N=CCC1c1cc(F)cc(F)c1 (centres unmarked) [Compound 56, (5-(3,5-difluorophenyl)-4,5-dihydro-1H-pyrazol-1-yl)(3-(2-fluorobenzylidene)azetidin-1-yl)methanone] | 1 to 1000
9 | CN(c1ccccc1)C1CN(C(=O)N2N=CCC2c2ccccc2)C1 (centres unmarked) [Compound 20, (3-(methyl(phenyl)amino)azetidin-1-yl)(5-phenyl-4,5-dihydro-1H-pyrazol-1-yl)methanone] | 1000 to 10000
10 | C[C@H]1CN(c2ncccn2)CCN1C(=O)N1N=CCC1c1ccccc1 (stereo in doubt) [Compound 112B, (S)-(2-methyl-4-(pyrimidin-2-yl)piperazin-1-yl)(5-phenyl-4,5-dihydro-1H-pyrazol-1-yl)methanone] | 1000 to 10000
11 | N#Cc1csc(OC2CN(C(=O)N3N=CCC3c3cc(F)cc(F)c3)C2)n1 (centres unmarked) [Compound 131, 2-((1-(5-(3,5-difluorophenyl)-4,5-dihydro-1H-pyrazole-1-carbonyl)azetidin-3-yl)oxy)thiazole-4-carbonitrile] | 1 to 1000
12 | C[C@@H]1CN(c2ncc(F)cn2)C[C@H](C)N1C(=O)N1N=CCC1c1cccc(F)c1 (stereo partly drawn) [Compound 29, (5-(3-fluorophenyl)-4,5-dihydro-1H-pyrazol-1-yl)((2R,6S)-4-(5-fluoropyrimidin-2-yl)-2,6-dimethylpiperazin-1-yl)methanone] | 1 to 1000
13 | COc1cccc(C=C2CN(C(=O)N3N=CCC3c3ccccc3)C2)c1 (centres unmarked) [Compound 43, (3-(3-methoxybenzylidene)azetidin-1-yl)(5-phenyl-4,5-dihydro-1H-pyrazol-1-yl)methanone] | 1 to 1000
14 | N#Cc1ccc(OC2CN(C(=O)N3N=CCC3c3cc(F)cc(F)c3)C2)c(F)c1 (centres unmarked) [Compound 136, 4-((1-(5-(3,5-difluorophenyl)-4,5-dihydro-1H-pyrazole-1-carbonyl)azetidin-3-yl)oxy)-3-fluorobenzonitrile] | 1 to 1000
15 | O=C(N1CCN(c2ncc(F)cn2)CC1)N1OCC[C@H]1c1ccccc1 [Compound 81, (S)-(4-(5-fluoropyrimidin-2-yl)piperazin-1-yl)(3-phenylisoxazolidin-2-yl)methanone] | 1 to 1000
16 | O=C(N1CC(Oc2ccc3oc(=O)[nH]c3c2)C1)N1N=CCC1c1cc(F)cc(F)c1 (centres unmarked) [Compound 185] | 1 to 1000
17 | O=C(N1CC(=Cc2ccc(Cl)cc2F)C1)N1N=CCC1c1cc(F)cc(F)c1 (centres unmarked) [Compound 138] | 1 to 1000
18 | CNC(=O)c1cccc(OC2CN(C(=O)N3N=CCC3c3cc(F)cc(F)c3)C2)c1Cl (centres unmarked) [Compound 164] | 1 to 1000

Same assay, conditions: necrosis inhibitor activity; compounds outside 14-191; read-out: EC50

Row | SMILES | EC50 [nM]
19 | N#Cc1nc(O[C@@H]2CCN(C(=O)N3N=CC[C@H]3c3cc(F)cc(F)c3)C2)ccc1Cl [Compound 339, 3-chloro-6-(((R)-1-((S)-5-(3,5-difluorophenyl)-4,5-dihydro-1H-pyrazole-1-carbonyl)pyrrolidin-3-yl)oxy)picolinonitrile] | 1 to 1000
20 | N#Cc1ccc(F)c(O[C@@H]2CCN(C(=O)N3N=CC[C@H]3c3cc(F)cc(F)c3)C2)c1 [Compound 341, 3-(((R)-1-((S)-5-(3,5-difluorophenyl)-4,5-dihydro-1H-pyrazole-1-carbonyl)pyrrolidin-3-yl)oxy)-4-fluorobenzonitrile] | 1 to 1000
21 | O=C(N1CC(=Cc2ccc3cn[nH]c3c2)C1)N1N=CC[C@H]1c1cc(F)cc(F)c1 [Compound 310, (S)-(3-((1H-indazol-6-yl)methylene)azetidin-1-yl)(5-(3,5-difluorophenyl)-4,5-dihydro-1H-pyrazol-1-yl)methanone] | 1 to 1000
22 | O=C(N1CC(=Cc2c(F)cc(F)cc2F)C1)N1N=CCC1c1cc(F)cc(F)c1 (centres unmarked) [Compound 304, (5-(3,5-difluorophenyl)-4,5-dihydro-1H-pyrazol-1-yl)(3-(2,4,6-trifluorobenzylidene)azetidin-1-yl)methanone] | 1 to 1000
23 | CC1CCCC(NC(=O)N2N=CCC2c2ccccc2)C1 (centres unmarked) [Compound 11, N-(3-methylcyclohexyl)-5-phenyl-4,5-dihydro-1H-pyrazole-1-carboxamide] | 1 to 1000
24 | N#Cc1ccc(O[C@@H]2CCN(C(=O)N3N=CC[C@H]3c3cc(F)cc(F)c3)C2)cc1 [Compound 343, 4-(((R)-1-((S)-5-(3,5-difluorophenyl)-4,5-dihydro-1H-pyrazole-1-carbonyl)pyrrolidin-3-yl)oxy)benzonitrile] | 1 to 1000
25 | N#Cc1cncc(O[C@@H]2CCN(C(=O)N3N=CC[C@H]3c3cc(F)cc(F)c3)C2)n1 [Compound 335, 6-(((R)-1-((S)-5-(3,5-difluorophenyl)-4,5-dihydro-1H-pyrazole-1-carbonyl)pyrrolidin-3-yl)oxy)pyrazine-2-carbonitrile] | 1 to 1000
26 | O=C1CCc2ccc(C=C3CN(C(=O)N4N=CCC4c4cc(F)cc(F)c4)C3)cc2N1 (centres unmarked) [Compound 277, 7-((1-(5-(3,5-difluorophenyl)-4,5-dihydro-1H-pyrazole-1-carbonyl)azetidin-3-yildene)methyl)-3,4-dihydroquinolin-2(1H)-one] | 1 to 1000
27 | CC1Oc2ccc(OC3CN(C(=O)N4N=CC[C@H]4c4cc(F)cc(F)c4)C3)cc2NC1=O (stereo partly drawn) [Compound 353, 6-((1-((S)-5-(3,5-difluorophenyl)-4,5-dihydro-1H-pyrazole-1-carbonyl)azetidin-3-yl)oxy)-2-methyl-2H-benzo[b][1,4]oxazin-3(4H)-one] | 1 to 1000
28 | CC1CCCCN1C(=O)N1N=CCC1c1ccccc1 (centres unmarked) [Compound 8, (2-methylpiperidin-1-yl)(5-phenyl-4,5-dihydro-1H-pyrazol-1-yl)methanone] | 1000 to 10000
29 | NC(=O)c1cc(Cl)nc(O[C@H]2CCN(C(=O)N3N=CC[C@H]3c3cc(F)cc(F)c3)C2)c1 [Compound 331, 2-chloro-6-(((S)-1-((S)-5-(3,5-difluorophenyl)-4,5-dihydro-1H-pyrazole-1-carbonyl)pyrrolidin-3-yl)oxy)isonicotinamide] | 1 to 1000
30 | N#CCCNc1ncc(F)c(OC2CN(C(=O)N3N=CC[C@H]3c3cc(F)cc(F)c3)C2)n1 [Compound 269, (S)-3-((4-((1-(5-(3,5-fluorophenyl)-4,5-dihydro-1H-pyrazole-1-carbonyl)azetidin-3-yl)oxy)-5-fluoropyrimidin-2-yl)amino)propanenitrile] | 1 to 1000
31 | O=C(O)c1cc2sc(OC3CN(C(=O)N4N=CC[C@H]4c4cc(F)cc(F)c4)C3)nc2[nH]1 [Compound 259, (S)-2-((1(5-(3,5-difluorophenyl)-4,5-dihydro-1H-pyrazole-1-carbonyl)azetidin-3-yl)oxy)-4H-pyrrolo[2,3-d]thiazole-5-carboxylic acid] | 1 to 1000
32 | O=C(N1CC(=Cc2cc3[nH][nH]c(=O)c3cc2F)C1)N1N=CC[C@H]1c1cc(F)cc(F)c1 [Compound 286, (S)-6-((1-(5-(3,5-difluorophenyl)-4,5-dihydro-1H-pyrazole-1-carbonyl)azetidin-3-ylidene)methyl)-5-fluoro-1H-315-indazol-3-one] | 1 to 1000
33 | CNc1nc(N2CCN(C(=O)N3N=CC[C@H]3c3cc(F)cc(F)c3)CC2)ncc1F [Compound 303, (S)-(5-(3,5-difluorophenyl)-4,5-dihydro-1H-pyrazol-1-yl)(4-(5-fluoro-4-(methylamino)pyrimidin-2-yl)piperazin-1-yl)methanone] | 1 to 1000
34 | CNc1ncc(F)c(OC2CN(C(=O)N3N=CC[C@H]3c3cc(F)cc(F)c3)C2)n1 [Compound 268, (S)-(5-(3,5-difluorophenyl)-4,5-dihydro-1H-pyrazol-1-yl)(3-((5-fluoro-2-(methylamino)pyrimidin-4-yl)oxy)azetidin-1-yl)methanone] | 1 to 1000
35 | O=C(N1CC(=Cc2ccc(F)cc2Cl)C1)N1N=CC[C@H]1c1cc(F)cc(F)c1 [Compound 312, (S)-(3-(2-chloro-4-fluorobenzylidene)azetidin-1-yl)(5-(3,5-difluorophenyl)-4,5-dihydro-1H-pyrazol-1-yl)methanone] | 1 to 1000
36 | O=C(Nc1nc(N2CCN(C(=O)N3N=CC[C@H]3c3cc(F)cc(F)c3)CC2)ncc1F)C1CCOCC1 [Compound 293, (S)—N-(2-(4-(5-(3,5-difluorophenyl)-4,5-dihydro-1H-pyrazole-1-carbonyl)piperazin-1-yl)-5-fluoropyrimidin-4-yl)tetrahydro-2H-pyran-4-carboxamide] | 1 to 1000
37 | CC1Oc2ccc(OC3CN(C(=O)N4N=CC[C@H]4c4ccccc4)C3)cc2NC1=O (stereo partly drawn) [Compound 355, 2-methyl-6-((1-((S)-5-phenyl-4,5-dihydro-1H-pyrazole-1-carbonyl)azetidin-3-yl)oxy)-2H-benzo[b][1,4]oxazin-3(4H)-one] | 1 to 1000
38 | O=C(N1CC[C@@H](Oc2cccc(NCCN3CCOCC3)n2)C1)N1N=CC[C@H]1c1cc(F)cc(F)c1 [Compound 358] | 1 to 1000
